# Source: PubChem BioAssay AID248 (DTP/NCI, 2004)
# Where “and” joins values, the source holds several entries; their conditions need not be identical. Equal entries are not always repeated. Inconclusive results and toxic doses are left out.
# Test system: L1210 leukemia ip in BDF1 mice, survival T/C
# Experiment: NCI In Vivo Anticancer Drug Screen. Data for tumor model L1210 Leukemia (intraperitoneal) in B6D2F1 (BDF1) mice
# Conditions: endpoint: mean survival time, higher = longer survival
# Outline: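 Tumor was transplanted into mice, which were then dosed with test compound or vehicle alone. Survival was recorded for each group, and the treated figure was expressed relative to the control figure.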
# [1] = dose: 50.0 mg/kg/injection, schedule: Q04DX002 (ip), vehicle: Klucel (hydroxypropylcellulose) (HPC)
# [2] = dose: 100.0 mg/kg/injection, schedule: Q01DX009 (ip), vehicle: Klucel (hydroxypropylcellulose) (HPC)
# [3] = dose: 200.0 mg/kg/injection, schedule: Q01DX009 (ip), vehicle: Klucel (hydroxypropylcellulose) (HPC)
# [4] = dose: 400.0 mg/kg/injection, schedule: Q01DX009 (ip), vehicle: Klucel (hydroxypropylcellulose) (HPC)
# [5] = dose: 100.0 mg/kg/injection, schedule: Q04DX003 (ip), vehicle: Klucel (hydroxypropylcellulose) (HPC)
# [6] = dose: 200.0 mg/kg/injection, schedule: Q04DX003 (ip), vehicle: Klucel (hydroxypropylcellulose) (HPC)
# [7] = dose: 100.0 mg/kg/injection, schedule: Q04DX003 (ip), vehicle: saline
# [8] = dose: 200.0 mg/kg/injection, schedule: Q04DX003 (ip), vehicle: saline
# [9] = dose: 50.0 mg/kg/injection, schedule: Q01DX009 (ip), vehicle: Klucel (hydroxypropylcellulose) (HPC)
# [10] = dose: 50.0 mg/kg/injection, schedule: Q04DX002 (ip), vehicle: saline
# [11] = dose: 100.0 mg/kg/injection, schedule: Q01DX001 (ip), vehicle: saline
# [12] = dose: 100.0 mg/kg/injection, schedule: Q04DX002 (ip), vehicle: saline
# [13] = dose: 200.0 mg/kg/injection, schedule: Q04DX002 (ip), vehicle: saline
smiles,measurement,setting,value
NC(N)=Nc1ccc([N+](=O)[O-])cc1,T/C,"dose: 12.5 mg/kg/injection, schedule: Q04DX002 (ip), vehicle: Klucel (hydroxypropylcellulose) (HPC)",103 % of control
same,T/C,"dose: 25.0 mg/kg/injection, schedule: Q04DX002 (ip), vehicle: Klucel (hydroxypropylcellulose) (HPC)",98 % of control
same,T/C,[1],103 % of control
COC(=O)/C(O)=C/C(N)=O.COC(=O)/C(O)=C/C(N)=O.[Cu],T/C,"dose: 9.37 mg/kg/injection, schedule: Q01DX001 (ip), vehicle: carboxymethylcellulose (CMC)",89 % of control
same,T/C,"dose: 18.75 mg/kg/injection, schedule: Q01DX001 (ip), vehicle: carboxymethylcellulose (CMC)",87 % of control
same,T/C,"dose: 37.5 mg/kg/injection, schedule: Q01DX001 (ip), vehicle: carboxymethylcellulose (CMC)",96 % of control
CCOC(=O)C1(NC(=O)N(CCCl)N=O)CCCC1,T/C,"dose: 16.0 mg/kg/injection, schedule: Q01DX001 (ip), vehicle: other",105 % of control
same,T/C,"dose: 31.0 mg/kg/injection, schedule: Q01DX001 (ip), vehicle: other",110 % of control
same,T/C,"dose: 108.0 mg/kg/injection, schedule: Q01DX001 (ip), vehicle: other",178 % of control
same,T/C,"dose: 110.0 mg/kg/injection, schedule: Q01DX001 (ip), vehicle: other",185 % of control
same,T/C,"dose: 125.0 mg/kg/injection, schedule: Q01DX001 (ip), vehicle: other",217 % of control
same,T/C,"dose: 165.0 mg/kg/injection, schedule: Q01DX001 (ip), vehicle: other",236 % of control
same,T/C,"dose: 168.0 mg/kg/injection, schedule: Q01DX001 (ip), vehicle: other",262 % of control
same,T/C,"dose: 247.0 mg/kg/injection, schedule: Q01DX001 (ip), vehicle: other",272 % of control
same,T/C,"dose: 250.0 mg/kg/injection, schedule: Q01DX001 (ip), vehicle: other",278 % of control and 314 % of control
same,T/C,"dose: 370.0 mg/kg/injection, schedule: Q01DX001 (ip), vehicle: other",250 % of control
same,T/C,"dose: 375.0 mg/kg/injection, schedule: Q01DX001 (ip), vehicle: other",115 % of control
same,T/C,"dose: 555.0 mg/kg/injection, schedule: Q01DX001 (ip), vehicle: other",94 % of control
CC(=O)OCC(=O)[C@@]1(O)CC[C@H]2[C@@H]3CCC4=CC(=O)CC[C@]4(C)[C@H]3[C@@H](O)C[C@@]21C,T/C,"dose: 1.13 mg/kg/injection, schedule: Q01DX Z (sc), vehicle: steriod suspending solution",102 % of control
same,T/C,"dose: 2.25 mg/kg/injection, schedule: Q01DX Z (sc), vehicle: steriod suspending solution",107 % of control
same,T/C,"dose: 4.5 mg/kg/injection, schedule: Q01DX Z (sc), vehicle: steriod suspending solution",102 % of control
same,T/C,"dose: 9.0 mg/kg/injection, schedule: Q01DX Z (sc), vehicle: steriod suspending solution",101 % of control
same,T/C,"dose: 25.0 mg/kg/injection, schedule: Q01DX Z (sc), vehicle: steriod suspending solution",87 % of control
same,T/C,"dose: 50.0 mg/kg/injection, schedule: Q01DX Z (sc), vehicle: steriod suspending solution",102 % of control
same,T/C,"dose: 100.0 mg/kg/injection, schedule: Q01DX009 (ip), vehicle: saline with Tween-80",105 % of control
same,T/C,"dose: 100.0 mg/kg/injection, schedule: Q01DX Z (sc), vehicle: steriod suspending solution",106 % of control
same,T/C,"dose: 100.0 mg/kg/injection, schedule: Q04DX003 (ip), vehicle: saline with Tween-80",104 % of control
same,T/C,"dose: 200.0 mg/kg/injection, schedule: Q01DX009 (ip), vehicle: saline with Tween-80",104 % of control
same,T/C,"dose: 200.0 mg/kg/injection, schedule: Q01DX009 (sc), vehicle: other",104 % of control
same,T/C,"dose: 200.0 mg/kg/injection, schedule: Q01DX Z (sc), vehicle: steriod suspending solution",110 % of control
same,T/C,"dose: 200.0 mg/kg/injection, schedule: Q04DX003 (ip), vehicle: saline with Tween-80",99 % of control
same,T/C,"dose: 400.0 mg/kg/injection, schedule: Q01DX001 (sc), vehicle: steriod suspending solution",92 % of control
same,T/C,"dose: 400.0 mg/kg/injection, schedule: Q01DX009 (ip), vehicle: saline with Tween-80",98 % of control
same,T/C,"dose: 400.0 mg/kg/injection, schedule: Q01DX009 (sc), vehicle: other",102 % of control
same,T/C,"dose: 400.0 mg/kg/injection, schedule: Q04DX003 (ip), vehicle: saline with Tween-80",100 % of control
same,T/C,"dose: 600.0 mg/kg/injection, schedule: Q01DX009 (sc), vehicle: other",96 % of control
same,T/C,"dose: 800.0 mg/kg/injection, schedule: Q01DX001 (sc), vehicle: steriod suspending solution",97 % of control
same,T/C,"dose: 800.0 mg/kg/injection, schedule: Q01DX009 (sc), vehicle: other",101 % of control
same,T/C,"dose: 1200.0 mg/kg/injection, schedule: Q01DX001 (sc), vehicle: steriod suspending solution",101 % of control
same,T/C,"dose: 1600.0 mg/kg/injection, schedule: Q01DX001 (sc), vehicle: steriod suspending solution",100 % of control
Cc1cc(C)c(NC(=O)c2ccccc2F)cc1C,T/C,[2],101 % of control
same,T/C,[3],100 % of control
same,T/C,[4],97 % of control
COC(=O)CSC(=O)C(O)c1ccccc1 (centres undefined),T/C,[5],96 % of control
same,T/C,[6],103 % of control
same,T/C,"dose: 400.0 mg/kg/injection, schedule: Q04DX003 (ip), vehicle: Klucel (hydroxypropylcellulose) (HPC)",103 % of control
Cn1ccc(CCl)n1,T/C,[7],95 % of control
same,T/C,[8],97 % of control
CCC(O)C[As](=O)(O)c1ccc(Cl)cc1 (centres undefined),T/C,"dose: 1.56 mg/kg/injection, schedule: Q01DX009 (ip), vehicle: saline with Tween-80",97 % of control
CS(=O)(=O)OCOS(C)(=O)=O,T/C,"dose: 12.5 mg/kg/injection, schedule: Q01DX009 (ip), vehicle: Klucel (hydroxypropylcellulose) (HPC)",104 % of control
same,T/C,"dose: 12.5 mg/kg/injection, schedule: Q01DX009 (ip), vehicle: saline",96 % of control
same,T/C,"dose: 25.0 mg/kg/injection, schedule: Q01DX009 (ip), vehicle: Klucel (hydroxypropylcellulose) (HPC)",101 % of control
same,T/C,"dose: 25.0 mg/kg/injection, schedule: Q01DX009 (ip), vehicle: saline",100 % of control
same,T/C,[9],120 % of control
same,T/C,[10],119 % of control
C/C(=C1/SC(=S)NC1=O)c1ccccc1,T/C,[11],102 % of control
CNC(=O)ON=C1CCC(CC2CCCCC2)CC1 (centres undefined),T/C,[9],100 % of control
same,T/C,[2],91 % of control
same,T/C,[5],92 % of control
same,T/C,[3],96 % of control
same,T/C,[6],94 % of control
CC(C)=NOS(=O)(=O)c1c(C)cc(C)cc1C,T/C,[1],98 % of control
same,T/C,[2],87 % of control
same,T/C,"dose: 100.0 mg/kg/injection, schedule: Q04DX002 (ip), vehicle: Klucel (hydroxypropylcellulose) (HPC)",98 % of control and 89 % of control
same,T/C,[3],97 % of control
same,T/C,"dose: 200.0 mg/kg/injection, schedule: Q04DX002 (ip), vehicle: Klucel (hydroxypropylcellulose) (HPC)",105 % of control
same,T/C,[4],97 % of control
same,T/C,"dose: 400.0 mg/kg/injection, schedule: Q04DX002 (ip), vehicle: Klucel (hydroxypropylcellulose) (HPC)",92 % of control
CCOc1ccc2c(ccc(C)[n+]2C)c1,T/C,"dose: 75.0 mg/kg/injection, schedule: Q01DX001 (ip), vehicle: carboxymethylcellulose (CMC)",108 % of control
same,T/C,"dose: 150.0 mg/kg/injection, schedule: Q01DX001 (ip), vehicle: carboxymethylcellulose (CMC)",109 % of control
CC(=O)N=c1ccccn1O,T/C,[12],96 % of control
same,T/C,[13],105 % of control
CCCC(=O)N1CCC(C)CC1,T/C,"dose: 50.0 mg/kg/injection, schedule: Q01DX001 (ip), vehicle: saline",103 % of control
same,T/C,"dose: 50.0 mg/kg/injection, schedule: Q01DX009 (ip), vehicle: saline",97 % of control and 98 % of control
same,T/C,[10],112 % of control
same,T/C,"dose: 50.0 mg/kg/injection, schedule: Q04DX003 (ip), vehicle: saline",100 % of control
same,T/C,[11],100 % of control
same,T/C,"dose: 100.0 mg/kg/injection, schedule: Q01DX009 (ip), vehicle: saline",98 % of control
same,T/C,[12],102 % of control
same,T/C,[7],107 % of control
same,T/C,"dose: 200.0 mg/kg/injection, schedule: Q01DX001 (ip), vehicle: saline",103 % of control
same,T/C,"dose: 200.0 mg/kg/injection, schedule: Q01DX009 (ip), vehicle: saline",94 % of control and 113 % of control
same,T/C,[13],102 % of control
same,T/C,[8],95 % of control
